In article PMC9257522, “Machine Learning for Discovery of New ADORA Modulators” (Frontiers in Pharmacology, 2022):
Several values for one entry are separate records, joined by “and”; a condition that tells them apart may be missing. Equal values may be shown once. Entries after “also recorded” stand apart in the source; their conditions may differ. Read-outs that look alike come from different tables or passages of the source. One block for each compound: values may come before it.

How the values were obtained:
[1] = tested on: T1, A2BAR; settings: background property of the receptor, no reference given, cited from earlier work
T1 construct: expressed in transfected cells; host or cells: HEK293

[2] = tested on: A3AR; settings: background property of the receptor, no reference given; listed as ADO; cited from earlier work
[3] = tested on: T2, human A1AR; assay: A1AR cAMP assay, HEK293 A1AR Nomad cell line (Innoprot), agonist mode; format: cell-based; settings: compounds at 10 µM, normalized to 10 µM NECA (100%) and vehicle DMSO (0%)
T2 construct: host or cells: HEK293 A1AR Nomad cell line
Description: For screening of the initial compounds predicted by machine learning models to activate A1AR receptor, we used the HEK293 A1AR Nomad cell line, which consists of HEK293 cells stably expressing human A1AR with no tag. This cell line has been designed to assay compounds or analyze their capability to modulate the A1AR. When the agonist binds to A1AR in this engineered cell line a Go protein is activated, which in turn, triggers a cellular response mediated by cAMP inhibition. This cellular response can be measured by quantifying the increase in fluorescence intensity and its cellular distribution. An agonist assay was performed for 29 compounds (predicted to be active by the machine learning model) in the human recombinant HEK293 A1AR Nomad cell line using a fluorescence-based assay. An agonist effect of the compounds was measured by quantifying the changes in the fluorescence emission cAMP Nomad biosensor, this elevation of fluorescence was analyzed using a plate reader Synergy 2 (Biotek, Winooski, VT). The error bars represent the standard deviation among the three replicate wells. The 29 compounds were tested at 10 μM using nonselective AR agonist adenosine-5′-N-ethyluronamide (NECA) at 10 μM as a reference.

[4] = tested on: T2, human A1AR; assay: Radioligand displacement binding, [3H]DPCPX, HEK293 membranes; settings: mean ± standard error, three independent experiments
Protocol: (§1) HEK293 cells stably expressing the human A1AR, A2AAR, A3AR were cultured in DMEM supplemented with 10% fetal bovine serum, 100 Units/ml penicillin, 100 µg/ml streptomycin, and 2 µmol/ml glutamine. To prepare cell membranes, cells were detached from culture plates by scraping into cold PBS and centrifuged at 250 g for 5 min. The pellets were resuspended in ice-cold PBS buffer (pH 7.4) and then homogenized. After homogenization and suspension, cells were centrifuged at 1,000 g for 10 min, and the pellet was discarded. The suspension was then re-centrifuged at 20,000 g for 60 min at 4°C. […] The aliquots of membrane preparations were stored at −80°C until the binding experiments. For displacement binding assays, membrane preparations (20 µg proteins/tube) were incubated at 25°C for 60 min with a final concentration of [^3H]DPCPX (0.5 nM), [^3H]ZM241385 (1.0 nM), […] [^125I]I-AB-MECA (0.1 nM) for A1AR, A2AAR, A3AR, respectively, in a mixture containing 50 µl of increasing concentrations of a test ligand in a total assay volume of 200 µl of 50 mM Tris HCl, pH 7.4, containing 10 mM MgCl2. Nonspecific binding was determined using 100 µM of XAC. The reaction was terminated by filtration with GF/B filters using a Brandel (Gaithersburg, MD) 24-channel harvester. Filters were placed in scintillation vials containing 5 ml of Hydrofluor scintillation buffer (National Diagnostics, Atlanta, GA) and counted using a Tricarb 2810TR liquid scintillation counter (PerkinElmer, Waltham, MA).

[5] = target: T3, human A2AAR (Homo sapiens, UniProt P29274); assay: Radioligand displacement binding, [3H]ZM241385, HEK293 membranes; settings: mean ± standard error, three independent experiments
T3 construct: expressed in transfected cells; host or cells: HEK293
T3 sequence (P29274 whole entry): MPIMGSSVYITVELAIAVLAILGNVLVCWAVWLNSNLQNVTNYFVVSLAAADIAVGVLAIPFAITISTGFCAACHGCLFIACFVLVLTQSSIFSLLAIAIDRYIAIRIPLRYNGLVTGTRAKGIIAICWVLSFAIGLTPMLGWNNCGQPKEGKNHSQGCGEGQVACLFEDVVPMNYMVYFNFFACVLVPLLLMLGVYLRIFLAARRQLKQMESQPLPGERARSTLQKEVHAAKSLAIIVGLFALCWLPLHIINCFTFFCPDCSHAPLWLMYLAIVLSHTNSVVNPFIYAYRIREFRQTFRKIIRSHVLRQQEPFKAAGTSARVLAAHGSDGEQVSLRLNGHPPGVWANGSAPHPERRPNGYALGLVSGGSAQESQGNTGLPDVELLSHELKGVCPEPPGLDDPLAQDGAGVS
Protocol: as §1

[6] = tested on: human A2BAR; assay: Radioligand displacement binding, [3H]DPCPX
[7] = target: T4, human A3AR (Homo sapiens, UniProt P0DMS8); assay: Radioligand displacement binding, [125I]I-AB-MECA, HEK293 membranes; settings: mean ± standard error, three independent experiments
T4 sequence (P0DMS8 1-318): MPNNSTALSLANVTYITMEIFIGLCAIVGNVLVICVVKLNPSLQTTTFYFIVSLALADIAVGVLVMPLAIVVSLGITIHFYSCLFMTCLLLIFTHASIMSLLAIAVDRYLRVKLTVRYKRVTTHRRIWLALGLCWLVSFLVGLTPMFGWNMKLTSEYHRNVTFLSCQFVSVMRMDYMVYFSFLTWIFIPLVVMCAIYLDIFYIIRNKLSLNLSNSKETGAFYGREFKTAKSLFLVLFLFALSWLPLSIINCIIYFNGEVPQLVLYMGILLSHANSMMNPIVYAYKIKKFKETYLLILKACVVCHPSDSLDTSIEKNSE
Protocol: as §1

[8] = tested on: T5, A1AR; assay: cAMP assay in AR-expressing HEK293 cells (ALPHAScreen), A1AR; format: cell-based, human; settings: A1AR-expressing HEK cells, cAMP inhibition, Cl-ENBA reference full agonist
T5 construct: expressed in transfected cells; host or cells: HEK293
Protocol: (§2) HEK293 cells were grown in 96-well plates in DMEM supplemented with 10% fetal bovine serum, 100 Units/ml penicillin, 100 µg/ml streptomycin, and 2 µmol/ml glutamine. […] For A1AR and A3AR, after incubation with agonists for 20 min, forskolin (10 µM) was added and the mixture incubated for an additional 15 min. The reaction was terminated upon removal of the supernatant and addition of 100 µl Tween-20 (0.3%). Intracellular cAMP levels were measured with an ALPHAScreen cAMP assay kit as instructed by the manufacturer (PerkinElmer).

[9] = target: T3, human A2AAR; assay: cAMP assay in AR-expressing HEK293 cells (ALPHAScreen), A2AAR; format: cell-based
Protocol: as §2

[10] = tested on: T1, A2BAR; assay: cAMP assay in AR-expressing HEK293 cells (ALPHAScreen), A2BAR; format: cell-based
Protocol: as §2

[11] = tested on: T6, A1AR; assay: A1AR-bla U2OS agonist screen (beta-arrestin/TEV, beta-lactamase reporter; Thermo Fisher); format: cell-based
T6 construct: host or cells: A1AR-bla U2OS
Protocol: A1AR-bla U2OS cells are thawed and resuspended in Assay Media (Freestyle media) to a concentration of 312,500 cells/ml. 32 μl of cell suspension (10,000 cells) was added to each well of a 384-well TC-Treated assay plate. Cells in Assay Media were incubated for 16–24 h in the plate at 37°C/5% CO2 in a humidified incubator. 4 μl aliquots of a 10X serial dilution of NECA (control agonist starting concentration, 500 nM) or compounds were added to appropriate wells of the plate. 4 μl of Assay Media was added to all wells to bring the final assay volume to 40 μl. The plate was incubated for 5 h at 37°C/5% CO2 in a humidified incubator. 8 μl of 1 μM substrate + Solution D Loading Solution was added to each well and the plate was incubated for 2 h at room temperature. The plate was read on a fluorescence plate reader.
(§3) This parental cell line stably expresses a beta‐arrestin/TEV protease fusion protein and the beta‐lactamase reporter gene under the control of a UAS response element. […] We also used a secondary assay PathHunter® β-Arrestin assay, which monitors the activation of A1AR in a homogenous, non-imaging assay format using a technology developed by DiscoverX called Enzyme Fragment Complementation (EFC) with β-galactosidase (β-Gal) as the functional reporter.

[12] = tested on: T6, A1AR; assay: PathHunter β-Arrestin assay (Eurofins/DiscoverX), agonist mode; format: cell-based; settings: maximum concentration 20 µM; normalized to control agonist CPA and vehicle
Protocol: PathHunter cell lines were expanded from freezer stocks according to standard procedures. […] For agonist determination, cells were incubated with sample to induce response. Intermediate dilution of sample stocks was performed to generate 5X sample in assay buffer. […] Vehicle concentration was 1%. […] Microplates were read following signal generation with a PerkinElmer Envision™ instrument for chemiluminescent signal detection.
as §3

[13] = target: T7, human A1 receptor (Homo sapiens, UniProt P30542); assay: A1AR calcium influx assay in BA/F3 cells (Eurofins); settings: maximum concentration tested 20 µM
T7 sequence (P30542 1-326): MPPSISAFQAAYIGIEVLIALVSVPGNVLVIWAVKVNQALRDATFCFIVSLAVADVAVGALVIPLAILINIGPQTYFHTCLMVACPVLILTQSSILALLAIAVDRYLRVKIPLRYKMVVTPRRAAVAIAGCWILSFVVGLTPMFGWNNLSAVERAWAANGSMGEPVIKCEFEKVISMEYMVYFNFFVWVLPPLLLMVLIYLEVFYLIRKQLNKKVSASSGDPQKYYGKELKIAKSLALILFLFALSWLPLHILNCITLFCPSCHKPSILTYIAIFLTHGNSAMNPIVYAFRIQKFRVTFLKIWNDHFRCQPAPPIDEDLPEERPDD
Protocol: This assay was performed using the screening services of Eurofins. Evaluation of the agonist activity of compounds at the human A1 receptor expressed in BA/F3 cells was determined by measuring their effect on cytosolic Ca^2+ ion mobilization using a fluorimetric detection method. The cells were suspended in HBSS buffer (Invitrogen) complemented with 20 mM Hepes and then distributed in microplates at a density of 5 × 10^4 cells/well. The fluorescent probe (Fluo8, AAT Bioquest, San Francisco, CA) mixed with probenicid in HBSS buffer (Invitrogen) complemented with 20 mM Hepes (Millipore, Burlington, MA) (pH 7.4) was then added into each well and equilibrated with the cells for 60 min at 30°C. Thereafter, the assay plates were positioned in a microplate reader (FlipR Tetra, Molecular Devices, San Jose, CA), which was used for the addition of the test compound, reference agonist or HBSS buffer (basal control), and for the measurements of changes in fluorescence intensity that varies proportionally to the free cytosolic Ca^2+ ion concentration.

[14] = target: A2AAR; settings: read-out: Ki, A2AAR; A2AAR antagonist; quoted without method, no reference given; cited from earlier work

Compound: Nc1ncnc2c1ncn2[C@@H]1O[C@H](CO)[C@@H](O)[C@H]1O [Adenosine]
Adenosine affinity, A2BAR [1]: Low affinity | Adenosine affinity, A2BAR ([1]; listed as ADO): relatively lower affinity | Adenosine affinity, A3AR [2]: relatively lower affinity

Inhibition of specific binding, % inhibition at 100 µM, A1 ([3H]DPCPX) [4]: 29.8 ± 5.2% | Ki, A2A ([3H]ZM241385) [5]: in the µM range | Ki ([5]; read-out: Ki, A2A ([3H]ZM241385)): 22900 ± 4300 nM | Inhibition of specific binding, % inhibition at 100 µM, A2B ([3H]DPCPX) [6]: <10% | Ki, A3 ([125I]I-AB-MECA) [7]: in the µM range | Ki ([7]; read-out: Ki, A3 ([125I]I-AB-MECA)): 67300 ± 45700 nM | cAMP, A2AAR activity (stimulation of cAMP) ([9]; A2AAR-expressing HEK293 cells): Not active | cAMP, A2AAR activity (stimulation of cAMP) ([9]; A2AAR-expressing HEK293 cells, listed as febuxostat): not
Compound: Cc1nc(-c2ccc(OCC(C)C)c(C#N)c2)sc1C(=O)O [Febuxostat]
normalized activity with respect to the positive control [3]: 94.53% | cAMP, A1AR agonist activity [8]: Not active

Inhibition of specific binding, % inhibition at 100 µM, A1 ([3H]DPCPX) [4]: 36.9 ± 3.4% | Inhibition of specific binding, % inhibition at 100 µM, A1 ([3H]DPCPX) ([4]; listed as crisaborole): weakly binding | Inhibition of specific binding, % inhibition at 100 µM, A2A ([3H]ZM241385) ([5]; 100 µM): No significant binding inhibition | inhibition at 100 µM ([5]; read-out: Inhibition of specific binding, % inhibition at 100 µM, A2A ([3H]ZM241385), 100 µM): 31.2 ± 5.6% | Inhibition of specific binding, % inhibition at 100 µM, A2B ([3H]DPCPX) [6]: <10% | Inhibition of specific binding, % inhibition at 100 µM, A3 ([125I]I-AB-MECA) ([7]; 100 µM): No significant binding inhibition | inhibition at 100 µM ([7]; read-out: Inhibition of specific binding, % inhibition at 100 µM, A3 ([125I]I-AB-MECA), 100 µM): 28.8 ± 16.3% | cAMP, A2AAR activity (stimulation of cAMP) ([9]; A2AAR-expressing HEK293 cells): Active | Emax ([9]; A2AAR-expressing HEK293 cells, reference full agonist = 100% stimulation): 67% | EC50 ([9]; HEK293 cells expressing human A2AAR, absence of antagonist, read-out: EC50, stimulation of cAMP, A2AAR): 2800 nM and 2780 nM | A1AR agonist activity, calcium influx assay [13]: no activity | A1AR agonist activity, calcium influx assay ([13]; listed as crisaborole): without activity
Compound: N#Cc1ccc(Oc2ccc3c(c2)COB3O)cc1 [Crisaborole]
normalized activity with respect to the positive control [3]: 98.52% | cAMP, A1AR agonist activity [8]: Not active | cAMP, A1AR agonist activity ([8]; listed as crisaborole): without activity | cAMP Emax, A2BAR ([10]; NECA reference full agonist (100%)): Emax = 17% | cAMP accumulation, A2BAR ([10]; weaker than at the A2AAR): increased cAMP accumulation | activation of A1AR, A1AR-bla U2OS cells [11]: no activation; also recorded: without activity; also recorded: no agonist activity | activation of A1AR, PathHunter β-Arrestin assay [12]: no activation; also recorded: without activity; also recorded: no agonist activity

Compound: CCn1c(=O)c2c(nc(/C=C/c3ccc(OC)c(OC)c3)n2C)n(CC)c1=O [istradefylline, Istradefylline]
Ki [14]: 2.2 nM
